According to the supplement of paper PMC10307832:

Assays:
Test in all cases: relative viability (nuclei count vs DMSO), 5 days (fraction); higher = more cells survive
Dovitinib + Olaparib = compound: CN1CCN(c2ccc3nc(-c4c(N)c5c(F)cccc5[nH]c4=O)[nH]c3c2)CC1 [Dovitinib] + O=C(c1cc(Cc2n[nH]c(=O)c3ccccc23)ccc1F)N1CCN(C(=O)C2CC2)CC1 [Olaparib] (partner 8 µM)
Procedure, shortened: (§1)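 A single step with final 0.05% Triton X-100, 1% formaldehyde and 1 ug/ml Hoechst fixed the cells and stained nuclei 5 days after treatment. Lung cancer cell lines in 1536-well plates had been treated by pin tool the day after seeding with one drug alone or a fixed anchor-drug dose plus five library-drug doses (not always all listed) in √10 steps, and nuclei were counted on 4× images. Relative viability is the ratio of nuclei in treated wells to nuclei in vehicle wells, taken as the median of duplicate plates.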

Dovitinib + AZD7762 = compound: CN1CCN(c2ccc3nc(-c4c(N)c5c(F)cccc5[nH]c4=O)[nH]c3c2)CC1 [Dovitinib] + NC(=O)Nc1cc(-c2cccc(F)c2)sc1C(=O)N[C@H]1CCCNC1 [AZD7762] (partner 0.2 µM)
Procedure, shortened: as §1

Dovitinib + Lapatinib = compound: CN1CCN(c2ccc3nc(-c4c(N)c5c(F)cccc5[nH]c4=O)[nH]c3c2)CC1 [Dovitinib] + CS(=O)(=O)CCNCc1ccc(-c2ccc3ncnc(Nc4ccc(OCc5cccc(F)c5)c(Cl)c4)c3c2)o1 [Lapatinib] (partner 2 µM)
Procedure, shortened: as §1

Dovitinib + Decitabine = compound: CN1CCN(c2ccc3nc(-c4c(N)c5c(F)cccc5[nH]c4=O)[nH]c3c2)CC1 [Dovitinib] + Nc1ncn([C@H]2C[C@H](O)[C@@H](CO)O2)c(=O)n1 [Decitabine] (partner 2 µM)
Procedure, shortened: as §1

Cell Line | relative viability (Dovitinib + Olaparib; first compound 0.02 µM) | relative viability (Dovitinib + Olaparib; first compound 0.06325 µM) | relative viability (Dovitinib + Olaparib; first compound 0.2 µM) | relative viability (Dovitinib + Olaparib; first compound 0.6325 µM) | relative viability (Dovitinib + Olaparib; first compound 2 µM) | relative viability (Dovitinib + AZD7762; first compound 0.02 µM) | relative viability (Dovitinib + AZD7762; first compound 0.06325 µM) | relative viability (Dovitinib + AZD7762; first compound 0.2 µM) | relative viability (Dovitinib + AZD7762; first compound 0.6325 µM) | relative viability (Dovitinib + AZD7762; first compound 2 µM) | relative viability (Dovitinib + Lapatinib; first compound 0.02 µM) | relative viability (Dovitinib + Lapatinib; first compound 0.06325 µM) | relative viability (Dovitinib + Lapatinib; first compound 0.2 µM) | relative viability (Dovitinib + Lapatinib; first compound 0.6325 µM) | relative viability (Dovitinib + Lapatinib; first compound 2 µM) | relative viability (Dovitinib + Decitabine; first compound 0.02 µM) | relative viability (Dovitinib + Decitabine; first compound 0.06325 µM) | relative viability (Dovitinib + Decitabine; first compound 0.2 µM) | relative viability (Dovitinib + Decitabine; first compound 0.6325 µM) | relative viability (Dovitinib + Decitabine; first compound 2 µM)
HCC-366 | 0.324 | 0.352 | 0.412 | 0.297 | 0.324 | 0.155 | 0.301 | 0.297 | 0.239 | 0.357 | 0.892 | 1.08 | 1.03 | 1.07 | 1.01 | 0.341 | 0.363 | 0.362 | 0.317 | 0.378
HCC-827 | 0.626 | 0.697 | 0.646 | 0.68 | 0.678 | 0.203 | 0.213 | 0.244 | 0.237 | 0.212 | 0.191 | 0.171 | 0.216 | 0.202 | 0.191 | 0.308 | 0.353 | 0.324 | 0.336 | 0.338
HOP-62 | 0.346 | 0.559 | 0.425 | 0.329 | 0.352 | 0.364 | 0.534 | 0.697 | 0.62 | 0.551 | 0.876 | 0.999 | 1 | 1.24 | 1.1 | 0.208 | 0.255 | 0.191 | 0.269 | 0.214
IA-LM | 0.723 | 0.812 | 0.916 | 0.795 | 0.845 |  |  |  |  |  | 1.07 | 0.693 | 0.709 | 0.648 | 0.821 |  |  |  |  | 
LCLC-103H | 0.765 | 0.763 | 0.751 | 0.759 | 0.718 | 0.777 | 0.802 | 0.784 | 0.704 | 0.699 |  |  |  |  |  | 0.722 | 0.775 | 0.75 | 0.758 | 0.739
NCI-H441 | 0.513 | 0.549 | 0.534 | 0.62 | 0.588 | 1.17 | 0.977 | 1.22 | 1.2 | 1.27 |  |  |  |  |  | 0.254 | 0.202 | 0.271 | 0.223 | 0.3
NCI-H520 | 0.358 | 0.315 | 0.332 | 0.33 | 0.389 |  |  |  |  |  | 0.826 | 0.822 | 0.903 | 0.79 | 0.921 | 0.477 | 0.504 | 0.488 | 0.499 | 0.514
NCI-H522 | 0.729 | 0.695 | 0.728 | 0.634 | 0.66 | 0.704 | 0.81 | 0.878 | 0.813 | 0.974 |  |  |  |  |  | 0.651 | 0.647 | 0.665 | 0.727 | 0.785
NCI-H661 | 0.68 | 0.749 | 0.738 | 0.774 | 0.752 |  |  |  |  |  | 0.562 | 0.512 | 0.51 | 0.437 | 0.483 | 0.573 | 0.591 | 0.652 | 0.571 | 0.595
NCI-H1563 |  |  |  |  |  |  |  |  |  |  | 0.92 | 0.994 | 0.944 | 0.982 | 1.18 |  |  |  |  | 
NCI-H1648 | 0.506 | 0.815 | 0.932 | 0.667 | 0.77 | 0.497 | 0.717 | 0.661 | 0.701 | 0.634 |  |  |  |  |  | 0.502 | 0.445 | 0.444 | 0.455 | 0.458
NCI-H1650 | 0.595 | 0.703 | 0.823 | 0.804 | 0.733 |  |  |  |  |  | 0.656 | 0.698 | 0.792 | 0.743 | 0.875 | 0.448 | 0.362 | 0.489 | 0.44 | 0.442
NCI-H1703 | 0.399 | 0.502 | 0.325 | 0.329 | 0.24 | 0.132 | 0.0996 | 0.125 | 0.114 | 0.146 | 1.17 | 0.955 | 0.788 | 0.784 | 0.42 |  |  |  |  | 
NCI-H2009 | 0.651 | 0.668 | 0.657 | 0.671 | 0.832 |  |  |  |  |  | 0.768 | 0.954 | 0.912 | 0.928 | 1.13 | 0.428 | 0.431 | 0.403 | 0.344 | 0.4
NCI-H2023 | 0.454 | 0.487 | 0.541 | 0.432 | 0.482 |  |  |  |  |  | 0.778 | 0.739 | 1.13 | 0.918 | 0.808 | 0.223 | 0.234 | 0.217 | 0.237 | 0.215
NCI-H2228 | 0.689 | 0.592 | 0.866 | 0.768 | 0.573 |  |  |  |  |  | 1.18 | 0.942 | 0.991 | 1.08 | 0.831 |  |  |  |  | 
NCI-H2342 | 0.486 | 0.415 | 0.439 | 0.486 | 0.427 | 0.561 | 0.583 | 0.488 | 0.8 | 0.473 |  |  |  |  |  | 0.799 | 0.697 | 0.672 | 0.756 | 0.776
SK-LU-1 | 0.418 | 0.487 | 0.446 | 0.501 | 0.452 |  |  |  |  |  | 0.735 | 0.927 | 0.875 | 0.814 | 0.823 | 0.614 | 0.636 | 0.662 | 0.758 | 0.572
SK-MES-1 | 0.682 | 0.749 | 0.74 | 0.773 | 0.829 |  |  |  |  |  | 0.438 | 0.47 | 0.482 | 0.524 | 0.437 | 0.358 | 0.404 | 0.381 | 0.414 | 0.348
SW 900 | 0.796 | 0.809 | 0.847 | 0.808 | 0.851 | 0.591 | 0.62 | 0.505 | 0.681 | 0.615 |  |  |  |  |  | 0.395 | 0.456 | 0.444 | 0.377 | 0.444
SW 1573 | 0.512 | 0.525 | 0.593 | 0.446 | 0.507 |  |  |  |  |  | 1.18 | 1.06 | 1.05 | 1.17 | 1.16 | 0.479 | 0.516 | 0.612 | 0.397 | 0.629
UMC-11 | 0.334 | 0.352 | 0.383 | 0.387 | 0.435 |  |  |  |  |  | 1.04 | 1.01 | 0.96 | 0.963 | 0.724 | 0.614 | 0.589 | 0.64 | 0.575 | 0.715
